Data on two molecules can be found in patent US12215111B2, “Imidazopyridazine IL-17 inhibitor compounds” (Janssen Pharmaceutica NV, priority 2021, dated 2025).

The target in experiment [1] is T1, IL-17A(FLAG-Tagged): IL-17RA(His-Tagged) (Homo sapiens, UniProt Q16552, K93Q). As to the kind of experiment: IL-17A(FLAG-tagged):IL-17RA(His-tagged) binding disruption Eu-HTRF assay, Protocol 1. The following applies: FLAG tagged IL-17A at 2× final concentration (2.5 nM); simple average if tested more than once. The text has this:
(§1) IL-17A(FLAG-Tagged): IL-17RA(His-Tagged) Binding Disruption Eu-HTRF Assay
(§2) An antibody directed against the FLAG tag of IL-17A (SEQ ID NO:1) is labeled with the HTRF donor chromophore (Europium-cryptate). IL-17A is present as a dimer that is “locked into” this quaternary structure due to the formation of loop-spanning […] disulfide bridges. The construct of IL-17RA used in the assay excludes the outer-membrane portion of the receptor and is fused to a C-terminal 10×His tag (SEQ ID NO:2). An antibody directed against the His tag of the IL-17RA chimera is labeled with the HTRF acceptor chromophore (“D2”). The fluorescence-resonance energy transfer (FRET) depends on the vicinity of the donor chromophore to the acceptor, and interruption of the binding between the IL-17A and IL-17RA causes the reduction/loss of FRET. Therefore, this assay allows to evaluate the compound effect on the binding IL-17A and IL-17RA by monitoring the fluorescence intensity of donor vs acceptor. The assay was run using either Protocol 1 or Protocol 2 described below.
(§3) Protocol 1: 40 nL of 2-fold serial diluted compound solution for total 22 dilution points is added into each well of a 1536-well, white, low-volume, non-binding plate (Greiner #782904), then 2 μl of FLAG tagged IL-17A at 2× final concentration (2.5 nM) in solution of PBS+0.01% Triton-X100 is added to each well. The assay plate is briefly centrifuged then incubated for 1 h at rt. A mixed solution is prepared containing 2×5 nM 10HIS×IL-17RA, 2×2.5 nM Eu-anti-FLAG (CISBIO), 2×5 nM D2-anti-HIS (CISBIO) in PBS+0.01% Triton-X100+200 mM Potassium Fluoride (Sigma 60238) and […] of mix is added to each well of the assay plate. The plate is briefly centrifuged then incubated for 2 h at rt. The HTRF intensities at the wavelength of donor (620 nm) and acceptor (665 nm) are measured using BMG Pherastar. The ratio between intensities at two wavelengths is calculated and plotted against the compound concentration and the data is fitted to a one-site competition model to yield IC50 of the compound.

Experiment [2] concerns the target T1, IL-17A(FLAG-Tagged): IL-17RA(His-Tagged). As to the kind of experiment: IL-17A(FLAG-tagged):IL-17RA(His-tagged) binding disruption Eu-HTRF assay, Protocol 2. The following applies: FLAG tagged IL-17A at 2× final concentration (1 nM); simple average if tested more than once.
Description: as §1, §2
as §3, with “2.” for “1:”, “nl” for “nL”, “(1” for “(2.5”, “(615” for “(620”

In experiment [3] the test system is IL-17A-induced G-CSF production in human normal keratinocyte (NHK). Nature of the experiment: NHK assay: IL-17A-induced G-CSF production in normal human keratinocytes. In kind it is cell-based. The following applies: Homo sapiens, Keratinocyte; IL-17A 5 ng/mL, 24 h at 37° C., G-CSF by HTRF; simple average if tested more than once. In outline:
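Stimulus rhIL-17A 5 ng/mL final, premixed 1 h rt with compound; adult NHK, 5% FBS, 0.2% DMSO. Viability by CellTiter-Glo vs DMSO.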
On the technique in general: TR-FRET usually uses a lanthanide donor and a delayed reading to cut background.

The conditions of experiment [4]: moderate-to-severe HS, seven of nine patients, open-label pilot-trial; cited from earlier work.

T1 sequence (Q16552 with tags, fused parts or gaps K93Q): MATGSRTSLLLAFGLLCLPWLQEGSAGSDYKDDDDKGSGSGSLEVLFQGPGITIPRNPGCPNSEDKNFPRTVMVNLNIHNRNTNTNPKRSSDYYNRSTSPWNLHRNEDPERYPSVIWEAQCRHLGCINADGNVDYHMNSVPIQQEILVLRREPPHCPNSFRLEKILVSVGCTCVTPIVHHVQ

Usually IC50 stands for the concentration that inhibits the measured activity by half. A lower IC50 goes with inhibition by little substance. With `O=C(N[C@H](c1cn2ncc(CN3C(=O)N[C@@H]4CC(F)(F)C[C@@H]43)cc2n1)C1CCC(F)(F)CC1)c1nonc1C1CC1` (single isomer, unassigned) [Example 7, 4-Cyclopropyl-N—((S)-(7-(((3aR*,6aS*)-5,5-difluoro-2-oxohexahydrocyclopenta[d]imidazol-1(2H)-yl)methyl)imidazo[1,2-b]pyridazin-2-yl)(4,4-difluorocyclohexyl)methyl)-1,2,5-oxadiazole-3-carboxamide], the half-inhibitory concentration (IC50) in experiment [1], in experiment [2] and in experiment [3] was under 4 µM in each case.

Regarding secukinumab, the “patients who achieved HiSCR” value in experiment [4] is 78%.
